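Values below derive from 48-hour exposures of cells grown in 96-well plates, with endpoints linearly interpolated between the two concentrations bracketing the appropriate inhibition level. Here, GI50 denotes the concentration required for 50% inhibition of growth.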 Active and inactive are the calls of the source. Cut-off read from the data, not from the text of the source: active = GI50 up to about 1.1 µM and inactive = higher.
What was measured:
Assay in all cases: NCI anticancer screen, dose series, 48 h
786-0 = test system: 786-0
A498 = test system: A498
A549 = test system: A549
ACHN = test system: ACHN
BT-549 = test system: BT-549
CAKI-1 = test system: CAKI-1
CCRF-CEM = test system: CCRF-CEM
COLO 205 = test system: COLO 205
DU-145 = test system: DU-145
EKVX = test system: EKVX
HCC 2998 = test system: HCC 2998
HCT-116 = test system: HCT-116
HCT-15 = test system: HCT-15
HL-60 = test system: HL-60
HOP-62 = test system: HOP-62
HOP-92 = test system: HOP-92
HT-29 = test system: HT-29
Hs-578T = test system: Hs-578T
IGROV-1 = test system: IGROV-1
KM12 = test system: KM12
LOX IMVI = test system: LOX IMVI
M14 = test system: M14
MCF7 = test system: MCF7
MDA-MB-231 = test system: MDA-MB-231
MDA-MB-435 = test system: MDA-MB-435
MDA-N = test system: MDA-N
MOLT-4 = test system: MOLT-4
Malme-3M = test system: Malme-3M
NCI-H226 = test system: NCI-H226
NCI-H23 = test system: NCI-H23
NCI-H460 = test system: NCI-H460
NCI-H522 = test system: NCI-H522
NCI/ADR-RES = test system: NCI/ADR-RES
OVCAR-3 = test system: OVCAR-3
OVCAR-4 = test system: OVCAR-4
OVCAR-5 = test system: OVCAR-5
OVCAR-8 = test system: OVCAR-8
PC-3 = test system: PC-3
RPMI-8226 = test system: RPMI-8226
RXF 393 = test system: RXF 393
SF-268 = test system: SF-268
SF-295 = test system: SF-295
SF-539 = test system: SF-539
SK-MEL-28 = test system: SK-MEL-28
SK-MEL-2 = test system: SK-MEL-2
SK-MEL-5 = test system: SK-MEL-5
SK-OV-3 = test system: SK-OV-3
SN12C = test system: SN12C
SNB-19 = test system: SNB-19
SR = test system: SR
SW-620 = test system: SW-620
T47D = test system: T47D
TK-10 = test system: TK-10
U-251 = test system: U-251
UACC-257 = test system: UACC-257
UACC-62 = test system: UACC-62
UO-31 = test system: UO-31
K562 = test system: K562
SNB-75 = test system: SNB-75

CC12CC3(O)OC(O1)C1(COC(=O)c4ccccc4)C3CC21OC1OC(CO)C(O)C(O)C1O (stereo not given)
GI50 (786-0): > 100 µM (inactive)
GI50 (A498): > 100 µM (inactive)
GI50 (A549): > 100 µM (inactive)
GI50 (ACHN): > 100 µM (inactive)
GI50 (BT-549): > 100 µM (inactive)
GI50 (CAKI-1): > 100 µM (inactive)
GI50 (CCRF-CEM): > 100 µM (inactive)
GI50 (COLO 205): > 100 µM (inactive)
GI50 (DU-145): > 100 µM (inactive)
GI50 (EKVX): > 100 µM (inactive)
GI50 (HCC 2998): > 100 µM (inactive)
GI50 (HCT-116): > 100 µM (inactive)
GI50 (HCT-15): > 100 µM
GI50 (HL-60): > 100 µM (inactive)
GI50 (HOP-62): > 100 µM (inactive)
GI50 (HOP-92): > 100 µM (inactive)
GI50 (HT-29): > 100 µM (inactive)
GI50 (Hs-578T): > 100 µM (inactive)
GI50 (IGROV-1): > 100 µM (inactive)
GI50 (KM12): > 100 µM (inactive)
GI50 (LOX IMVI): > 100 µM (inactive)
GI50 (M14): > 100 µM (inactive)
GI50 (MCF7): > 100 µM (inactive)
GI50 (MDA-MB-231): > 100 µM (inactive)
GI50 (MDA-MB-435): > 100 µM (inactive)
GI50 (MDA-N): > 100 µM (inactive)
GI50 (MOLT-4): > 100 µM (inactive)
GI50 (Malme-3M): > 100 µM (inactive)
GI50 (NCI-H226): > 100 µM (inactive)
GI50 (NCI-H23): > 100 µM (inactive)
GI50 (NCI-H460): > 100 µM (inactive)
GI50 (NCI-H522): > 100 µM (inactive)
GI50 (NCI/ADR-RES): > 100 µM (inactive)
GI50 (OVCAR-3): > 100 µM (inactive)
GI50 (OVCAR-4): > 100 µM (inactive)
GI50 (OVCAR-5): > 100 µM (inactive)
GI50 (OVCAR-8): > 100 µM (inactive)
GI50 (PC-3): > 100 µM (inactive)
GI50 (RPMI-8226): > 100 µM (inactive)
GI50 (RXF 393): > 100 µM (inactive)
GI50 (SF-268): > 100 µM (inactive)
GI50 (SF-295): > 100 µM (inactive)
GI50 (SF-539): > 100 µM (inactive)
GI50 (SK-MEL-28): > 100 µM (inactive)
GI50 (SK-MEL-2): > 100 µM (inactive)
GI50 (SK-MEL-5): > 100 µM (inactive)
GI50 (SK-OV-3): > 100 µM (inactive)
GI50 (SN12C): > 100 µM (inactive)
GI50 (SNB-19): > 100 µM (inactive)
GI50 (SR): > 100 µM (inactive)
GI50 (SW-620): > 100 µM (inactive)
GI50 (T47D): > 100 µM (inactive)
GI50 (TK-10): > 100 µM (inactive)
GI50 (U-251): > 100 µM (inactive)
GI50 (UACC-257): > 100 µM (inactive)
GI50 (UACC-62): > 100 µM (inactive)
GI50 (UO-31): > 100 µM (inactive)

CC#CC#C/C=C1/O[C@]2(CCC(OC(C)=O)CO2)[C@@H]2O[C@H]12 (stereo not given in full)
GI50 (786-0): 18.2 µM (inactive)
GI50 (A498): 22.2 µM (inactive)
GI50 (A549): 29.6 µM (inactive)
GI50 (ACHN): 24.9 µM (inactive)
GI50 (BT-549): 21.1 µM (inactive)
GI50 (CAKI-1): 25.5 µM (inactive)
GI50 (CCRF-CEM): 14.7 µM (inactive)
GI50 (COLO 205): 15.1 µM (inactive)
GI50 (DU-145): 30.5 µM (inactive)
GI50 (EKVX): 31.5 µM (inactive)
GI50 (HCC 2998): 18.5 µM (inactive)
GI50 (HCT-116): 17.8 µM (inactive)
GI50 (HCT-15): 16.6 µM
GI50 (HL-60): 18.4 µM (inactive)
GI50 (HOP-62): 37.2 µM (inactive)
GI50 (HOP-92): 28.1 µM (inactive)
GI50 (HT-29): 28.9 µM (inactive)
GI50 (Hs-578T): 40.3 µM (inactive)
GI50 (IGROV-1): 50.7 µM (inactive)
GI50 (K562): 29.4 µM (inactive)
GI50 (KM12): 19.9 µM (inactive)
GI50 (LOX IMVI): 15.1 µM (inactive)
GI50 (M14): 18.4 µM (inactive)
GI50 (MCF7): 26.5 µM (inactive)
GI50 (MDA-MB-231): 23 µM (inactive)
GI50 (MDA-MB-435): 22.1 µM (inactive)
GI50 (MDA-N): 28.2 µM (inactive)
GI50 (MOLT-4): 17 µM (inactive)
GI50 (Malme-3M): 14.7 µM (inactive)
GI50 (NCI-H226): 20.4 µM (inactive)
GI50 (NCI-H23): 19.4 µM (inactive)
GI50 (NCI-H460): 18.1 µM (inactive)
GI50 (NCI-H522): 15.3 µM (inactive)
GI50 (NCI/ADR-RES): 21.7 µM (inactive)
GI50 (OVCAR-3): 29.4 µM (inactive)
GI50 (OVCAR-4): 27.9 µM (inactive)
GI50 (OVCAR-5): 30.5 µM (inactive)
GI50 (OVCAR-8): 32.8 µM (inactive)
GI50 (PC-3): 22.1 µM (inactive)
GI50 (RPMI-8226): 27.2 µM (inactive)
GI50 (RXF 393): 18.5 µM (inactive)
GI50 (SF-268): 27.8 µM (inactive)
GI50 (SF-295): 35.4 µM (inactive)
GI50 (SK-MEL-2): 16.8 µM (inactive)
GI50 (SK-OV-3): 51.9 µM (inactive)
GI50 (SN12C): 20.6 µM (inactive)
GI50 (SNB-19): 27.7 µM (inactive)
GI50 (SNB-75): 80.5 µM (inactive)
GI50 (SR): 25.9 µM (inactive)
GI50 (SW-620): 25.7 µM (inactive)
GI50 (T47D): 15.3 µM (inactive)
GI50 (TK-10): 39.5 µM (inactive)
GI50 (U-251): 17.9 µM (inactive)
GI50 (UACC-257): 21.6 µM (inactive)
GI50 (UACC-62): 16.6 µM (inactive)
GI50 (UO-31): 20.1 µM (inactive)

COC1CC(OC2OC(CO)C(O)C(O)C2O)/C(=C\C#N)C(O)C1OC (stereo not given)
GI50 (786-0): > 100 µM (inactive)
GI50 (A498): > 100 µM (inactive)
GI50 (A549): > 100 µM (inactive)
GI50 (ACHN): > 100 µM (inactive)
GI50 (BT-549): > 100 µM (inactive)
GI50 (CAKI-1): > 100 µM (inactive)
GI50 (CCRF-CEM): > 100 µM (inactive)
GI50 (COLO 205): > 100 µM (inactive)
GI50 (DU-145): > 100 µM (inactive)
GI50 (EKVX): > 100 µM (inactive)
GI50 (HCC 2998): > 100 µM (inactive)
GI50 (HCT-116): > 100 µM (inactive)
GI50 (HCT-15): > 100 µM
GI50 (HL-60): > 100 µM (inactive)
GI50 (HOP-62): > 100 µM (inactive)
GI50 (HOP-92): > 100 µM (inactive)
GI50 (HT-29): > 100 µM (inactive)
GI50 (Hs-578T): > 100 µM (inactive)
GI50 (IGROV-1): > 100 µM (inactive)
GI50 (KM12): > 100 µM (inactive)
GI50 (LOX IMVI): > 100 µM (inactive)
GI50 (M14): > 100 µM (inactive)
GI50 (MCF7): > 100 µM (inactive)
GI50 (MDA-MB-231): > 100 µM (inactive)
GI50 (MDA-MB-435): > 100 µM (inactive)
GI50 (MDA-N): > 100 µM (inactive)
GI50 (MOLT-4): > 100 µM (inactive)
GI50 (Malme-3M): > 100 µM (inactive)
GI50 (NCI-H226): > 100 µM (inactive)
GI50 (NCI-H23): > 100 µM (inactive)
GI50 (NCI-H460): > 100 µM (inactive)
GI50 (NCI-H522): > 100 µM (inactive)
GI50 (NCI/ADR-RES): > 100 µM (inactive)
GI50 (OVCAR-3): > 100 µM (inactive)
GI50 (OVCAR-4): > 100 µM (inactive)
GI50 (OVCAR-5): > 100 µM (inactive)
GI50 (OVCAR-8): > 100 µM (inactive)
GI50 (PC-3): > 100 µM (inactive)
GI50 (RPMI-8226): > 100 µM (inactive)
GI50 (RXF 393): > 100 µM (inactive)
GI50 (SF-268): > 100 µM (inactive)
GI50 (SF-295): > 100 µM (inactive)
GI50 (SF-539): > 100 µM (inactive)
GI50 (SK-MEL-28): > 100 µM (inactive)
GI50 (SK-MEL-2): > 100 µM (inactive)
GI50 (SK-MEL-5): > 100 µM (inactive)
GI50 (SK-OV-3): > 100 µM (inactive)
GI50 (SN12C): > 100 µM (inactive)
GI50 (SNB-19): > 100 µM (inactive)
GI50 (SR): > 100 µM (inactive)
GI50 (SW-620): > 100 µM (inactive)
GI50 (T47D): > 100 µM (inactive)
GI50 (TK-10): > 100 µM (inactive)
GI50 (U-251): > 100 µM (inactive)
GI50 (UACC-257): > 100 µM (inactive)
GI50 (UACC-62): > 100 µM (inactive)
GI50 (UO-31): > 100 µM (inactive)
